Measured values from US7094400B1, “Transkaryotic implantation” (Shire Human Genetic Therapies, Inc., priority 1987, dated 2006).

Columns and labels:
[1] = test system: Transfected cells which expressed human growth hormone; assay: Effects of immunosuppression on IP cells, serum human growth hormone; format: in vivo; conditions: for serum human growth hormone: in ng/mL
Source text: If the transfected cells are destroyed by transplant rejection, immunosuppression should prolong the functional life of the implant.

[2] = test system: mouse metallothionein-I promoter; assay: Zinc induction of hGH expression from intraperitoneally implanted cells (metallothionein-I promoter); format: in vivo, mice; conditions: 76 mM ZnSO4 in drinking water; IP stably transfected cells
Description: As described above, the plasmid pXGH5 contains the mouse metallothionein-I promoter. In order to determine whether the implanted cells were sufficiently healthy to respond to their local environment, the ability of zinc to induce higher levels of human growth hormone expression was determined. Stably transfected cells, prepared as described in Example 1B, were implanted intraperitoneally in mice, some of which were given 76 mM ZnSO4 in their drinking water. The animals treated with zinc expressed ten-fold more human growth hormone in their serum than did those with no treatment. […] Furthermore, RNA prepared from cells recovered from subcapsular implants contained the correct mMT-I/human growth hormone fusion mRNA (FIG. 5). […] Of substantial importance is the fact that the cells, once in place in the animal, could still be modulated by external means.

C[C@@H]1C[C@H]2[C@@H]3CCC4=CC(=O)C=C[C@]4(C)[C@@]3(F)[C@@H](O)C[C@]2(C)[C@@]1(O)C(=O)CO [Dexamethasone, dexamethasone]
serum human growth hormone detectable until [1]: 48 days post-implantation | serum human growth hormone ([1]; day 1 post-implantation): 94.8 +/− 9.2 | serum human growth hormone ([1]; day 2 post-implantation): 86.6 +/− 10.5 | serum human growth hormone ([1]; day 4 post-implantation): 54.3 +/− 14.2 | serum human growth hormone ([1]; day 21 post-implantation): 28.0 +/− 13.6 | serum human growth hormone ([1]; day 27 post-implantation): 13.9 +/− 6.9 | serum human growth hormone ([1]; day 41 post-implantation): 7.5 +/− 6.1 | serum human growth hormone ([1]; day 48 post-implantation): 2.7 +/− 2.2 | serum human growth hormone ([1]; days 8 to 10 post-implantation): 99.3 +/− 48.0 | serum human growth hormone ([1]; days 15 to 17 post-implantation): 28.3 +/− 18.1

O=S(=O)([O-])[O-].[Zn+2] [ZnSO4]
human growth hormone in serum versus no treatment [2]: ten-fold more
